We go through two compounds from patent US5439812A, “Antibodies catalyzing deamidation of proteins” (The Pennsylvania Research Corporation, priority 1992, dated 1995).

A word on the Km: it is the substrate concentration at which the rate is half of its maximum.

Where a name gives a salt, the structure may show the parent alone. Square brackets hold non-standard residues; d marks the D form. Peptide text beside a SMILES is read from it. * marks the point of attachment. ξ: configuration not given here. NHPhenethyl = c1ccc(CCN*)cc1; ξN = NC(=O)CC(N)C(=O)O

Assay [1] has as its system monoclonal catalytic antibody 2E4 raised to the RG2 hapten-KLH conjugate. Kind of assay: deamidation of the Asn-Gly substrate catalysed by antibody 2E4 (glutamate dehydrogenase coupled ammonia assay). Type of assay: biochemical, mouse. An excerpt: (§1) The resulting hybridomas are subjected to a preliminary screening for binding to the hapten using standard methods specifically as described in U.S. Pat. No. 5,079,152 to Benkovic et al, noted above. […] This assay is chosen to specifically screen for those antibodies which catalyze the deamidation reaction and assays by the determination of ammonia. The procedure is a modification of known procedures which use glutamate dehydrogenase to detect ammonia. (See Foncesca-Wollheim, F. Clin. Chem., […], 1483-1487 (1990), and von Anken, H. D., Schiphorst, M. E., Clinica Chimica Acta, 56, 151-157 (1974)).
The deamidation to the cyclic imide intermediate is assayed by a spectrophotometric procedure coupling the antibody-catalyzed reaction to the enzyme glutamate dehydrogenase. Glutamate dehydrogenase utilizes the ammonia produced from the antibody-catalyzed deamidation reaction to convert alpha-ketoglutarate into glutamic acid, oxidizing nicotimamide dinucleotide phosphate in the process (NADPH is oxidized to NADP). The glutamate dehydrogenase reaction is monitored spectrophotometrically.
Thirty antibodies are picked for assay for catalytic activity. The antibodies are delivered in phosphate buffered saline solutions. These are then dialyzed into bicine buffer (pH 9.0, 0.10M) and 100 uL of the dialyzed solution was then added to a solution of bicine (166 uL, pH 9.0, 0.10M). To this is added 16.5 uL of a solution containing 400 uM NADPH, α-ketoglutarate, and adenosine diphosphate. This is mixed thoroughly and then 16.5 uL of analytical grade glutamate dehydrogenase (Boehringer Mannheim) is added and the solution is again mixed thoroughly. The reaction is initiated by addition of the substrate which is stored in a DMSO solution such that the total concentration of DMSO was 5%.
The solution is then transfered to a small cuvette and the decrease in absorbance at 340 nanometers is followed over a period of several hours. Control reactions are performed under identical conditions without the addition of antibody to the reaction mixture (bicine buffer was added in place of the antibody to maintain volume). The antibody catalyzed rate is determined by subtracting the overall rate (antibody-catalyzed and spontaneous rates) from the spontaneous rate determined from the control reaction.
This is not a Vmx since the substrate was not at total saturation of the antibody. The actual rate enhancement is probably greater. […]

Assay [2] has as its system monoclonal catalytic antibody 24C3 raised to the RG2 hapten-KLH conjugate. Put plainly: deamidation of the Asn-Gly substrate catalysed by antibody 24C3 (glutamate dehydrogenase coupled ammonia assay). Type of assay: biochemical, mouse.
Source text: as §1
The deamidation to the cyclic imide intermediate is assayed by a spectrophotometric procedure coupling the antibody-catalyzed reaction to the enzyme glutamate dehydrogenase. […] The glutamate dehydrogenase reaction is monitored spectrophotometrically. […]
The solution is then transfered to a small cuvette and the decrease in absorbance at 340 nanometers is followed over a period of several hours. […] The antibody catalyzed rate is determined by subtracting the overall rate (antibody-catalyzed and spontaneous rates) from the spontaneous rate determined from the control reaction. […]

With `O=C(O)CCCC(=O)NC1CP(=O)(O)C(CC(=O)NCCc2ccccc2)C1O` (stereo not drawn) [phospholane hapten, N-(Z-Phenylethyl)-[1'-hydroxyphosphol-3'-hydroxy-4'-(5-hydroxy-5-oxo-pentanoyl)amino-1'-oxo-2'-yl]acetamide disodium salt], the “inhibition of antibody-catalysed deamidation by hapten” value in assay [1] is given as “stoichiometrically inhibited”; in assay [2], “inhibition of this reaction with hapten”.
As for `CC(=O)NC(CC(N)=O)C(=O)NCC(=O)NCCc1ccccc1` (stereo not drawn) [substrate, phenyl ethyl derivative of the asparaginyl-glycyl dipeptide] (Ac-[ξN]-Gly-NHPhenethyl), the kcat in assay [1] (2E4 investigated in more detail) is 1.5±0.3×10^-4 s^-1; in assay [1] (25° C., bicine pH 9.0, substrate 451 uM, antibody 27.4 uM, not a Vmax, substrate not at total saturation) it was 0.416 h⁻¹; in assay [2] (not a true Vmax), 0.352. The Km in assay [1] (2E4 investigated in more detail, read-out: binding affinity for the substrate (Km)) came out at 220 ± 10 µM.
